Experimental data from ChEMBL document CHEMBL1201862, “PubChem BioAssay data set” (2004).
Calls of active or inactive are those of the source.

Columns and labels:
[1] = tested on: HEK293; test: EBV LMP1 TES2 canonical NF-kB signalling blockers – cell-based, HEK293, luciferase, cherry-pick, dose response (AID 588343); type: functional; details: Homo sapiens
[2] = molecular target: Heat shock protein HSP 90-alpha (Homo sapiens, UniProt P07900); type: functional, organism-based
[3] = viability of PTEN-deleted HCT116 cells – cell-based, HCT116 PTEN knockout, dose response (AID 1047); type: functional;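 note: HCT116 colon tumor cells with PTEN knocked out; cells exposed to compound for 60 hours before readout; potency for loss of cell viability measured by luminescence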
[4] = tested on: INS1; test: INS-1E survival protection against cytokine death – cell-based, luminescence, retest, dose response (AID 449756); type: functional; details: Rattus norvegicus;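 note: cell death triggered by IL-1 beta plus TNF-alpha plus IFN-gamma mixture; protective hits raise ATP signal compared with cytokine alone wells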
[5] = viability of HCT116 lacking mutant beta-catenin – cell-based, human colon tumor, dose response (AID 1045); type: functional;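 note: HCT116 colon tumor cells with beta catenin knocked out; cells exposed to compound for 60 hours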
[6] = microbe, parasite or virus in culture; type: functional; details: Mycobacterium tuberculosis
[7] = molecular target: Glucose-6-phosphate 1-dehydrogenase (Homo sapiens, UniProt P11413); test: inhibition of Homo sapiens G6PD, dose series – biochemical, fluorescence, selectivity assay for P. falciparum G6PD inhibitor project, dose response (AID 504792); type: functional
Glucose-6-phosphate 1-dehydrogenase, sequence (P11413 whole entry): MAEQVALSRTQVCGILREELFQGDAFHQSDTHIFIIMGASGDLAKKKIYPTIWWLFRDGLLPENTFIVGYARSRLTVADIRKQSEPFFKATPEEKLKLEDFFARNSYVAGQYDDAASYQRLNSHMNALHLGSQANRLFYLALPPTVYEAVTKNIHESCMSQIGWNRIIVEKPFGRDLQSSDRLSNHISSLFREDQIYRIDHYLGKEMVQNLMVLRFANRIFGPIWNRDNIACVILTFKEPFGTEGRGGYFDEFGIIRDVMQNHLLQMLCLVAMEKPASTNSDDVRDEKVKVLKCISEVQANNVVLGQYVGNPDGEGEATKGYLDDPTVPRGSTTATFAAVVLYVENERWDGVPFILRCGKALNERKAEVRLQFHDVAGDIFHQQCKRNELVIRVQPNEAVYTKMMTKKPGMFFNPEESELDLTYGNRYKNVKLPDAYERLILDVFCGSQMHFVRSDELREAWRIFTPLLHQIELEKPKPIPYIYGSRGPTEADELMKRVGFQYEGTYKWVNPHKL

[8] = tested on: H9c2; test: cells; type: functional, cell-based; details: Rattus norvegicus, H9c2, Myocardium;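 note: confirmatory concentration-response retest of ultra-high-throughput screening hits for modulation of myocardial damage; cell death induced by hydrogen peroxide oxidative stress; compound pretreatment for 60 min then peroxide exposure for 2 h; potency is for protecting the cells against peroxide damage rather than for killing them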
[9] = molecular target: Cytochrome P450 2C9 (Homo sapiens, UniProt P11712)
Cytochrome P450 2C9, sequence (P11712 whole entry): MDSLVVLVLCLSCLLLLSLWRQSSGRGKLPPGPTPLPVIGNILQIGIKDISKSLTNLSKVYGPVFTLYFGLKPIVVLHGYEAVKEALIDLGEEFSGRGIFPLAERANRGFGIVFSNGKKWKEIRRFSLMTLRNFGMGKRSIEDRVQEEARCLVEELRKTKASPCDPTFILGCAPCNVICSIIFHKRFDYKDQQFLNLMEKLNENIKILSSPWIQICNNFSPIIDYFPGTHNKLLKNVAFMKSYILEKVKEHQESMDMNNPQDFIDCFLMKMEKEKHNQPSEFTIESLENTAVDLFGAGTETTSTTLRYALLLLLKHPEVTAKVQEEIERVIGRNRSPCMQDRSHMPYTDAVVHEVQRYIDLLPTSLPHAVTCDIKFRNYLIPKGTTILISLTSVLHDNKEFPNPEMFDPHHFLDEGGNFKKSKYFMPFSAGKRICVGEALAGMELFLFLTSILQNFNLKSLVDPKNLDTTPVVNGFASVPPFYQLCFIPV

[10] = molecular target: Genome polyprotein (dengue virus type 2, UniProt P29990); test: flavivirus cap methylation enzyme inhibition – biochemical, confirmation dose response, primary screen (AID 588689); type: functional
Genome polyprotein, sequence (P29990 2492-3391 limits assumed): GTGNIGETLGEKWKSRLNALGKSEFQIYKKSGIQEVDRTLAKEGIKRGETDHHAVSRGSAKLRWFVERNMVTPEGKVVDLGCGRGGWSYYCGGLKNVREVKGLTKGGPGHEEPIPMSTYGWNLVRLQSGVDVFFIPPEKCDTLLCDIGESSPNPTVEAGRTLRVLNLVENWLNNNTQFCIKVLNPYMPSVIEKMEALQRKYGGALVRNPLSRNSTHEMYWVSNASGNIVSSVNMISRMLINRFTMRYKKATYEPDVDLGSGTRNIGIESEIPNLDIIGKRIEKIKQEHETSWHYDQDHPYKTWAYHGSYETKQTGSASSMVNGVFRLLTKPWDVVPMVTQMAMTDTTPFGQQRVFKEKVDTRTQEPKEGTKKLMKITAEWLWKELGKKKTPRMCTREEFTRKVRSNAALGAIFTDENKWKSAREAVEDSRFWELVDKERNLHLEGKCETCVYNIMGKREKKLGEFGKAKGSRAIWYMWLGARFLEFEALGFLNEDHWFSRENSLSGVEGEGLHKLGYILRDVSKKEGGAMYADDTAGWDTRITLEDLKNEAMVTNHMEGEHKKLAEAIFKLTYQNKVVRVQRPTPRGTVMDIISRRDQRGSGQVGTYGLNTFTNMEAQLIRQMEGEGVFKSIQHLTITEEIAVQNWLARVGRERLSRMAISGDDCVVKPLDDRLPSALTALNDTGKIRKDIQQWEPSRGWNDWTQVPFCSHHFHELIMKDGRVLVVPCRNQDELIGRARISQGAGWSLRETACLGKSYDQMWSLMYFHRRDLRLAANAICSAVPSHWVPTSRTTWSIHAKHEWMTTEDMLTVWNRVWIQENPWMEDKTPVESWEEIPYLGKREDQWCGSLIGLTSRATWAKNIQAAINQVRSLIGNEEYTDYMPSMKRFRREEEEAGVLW

[11] = viability of uninfected HEp-2 cells – cell-based, HTS, cytotoxicity control for RSV inhibitor project, dose response (AID 2410); type: functional; details: human respiratory syncytial virus
[12] = molecular target: T1, High affinity choline transporter 1 (Homo sapiens, UniProt Q9GZV3); test: human choline transporter blockers, potency – cell-based, 5-point CRC, membrane potential dye, dose response (AID 504840); type: functional
T1 sequence (Q9GZV3 whole entry): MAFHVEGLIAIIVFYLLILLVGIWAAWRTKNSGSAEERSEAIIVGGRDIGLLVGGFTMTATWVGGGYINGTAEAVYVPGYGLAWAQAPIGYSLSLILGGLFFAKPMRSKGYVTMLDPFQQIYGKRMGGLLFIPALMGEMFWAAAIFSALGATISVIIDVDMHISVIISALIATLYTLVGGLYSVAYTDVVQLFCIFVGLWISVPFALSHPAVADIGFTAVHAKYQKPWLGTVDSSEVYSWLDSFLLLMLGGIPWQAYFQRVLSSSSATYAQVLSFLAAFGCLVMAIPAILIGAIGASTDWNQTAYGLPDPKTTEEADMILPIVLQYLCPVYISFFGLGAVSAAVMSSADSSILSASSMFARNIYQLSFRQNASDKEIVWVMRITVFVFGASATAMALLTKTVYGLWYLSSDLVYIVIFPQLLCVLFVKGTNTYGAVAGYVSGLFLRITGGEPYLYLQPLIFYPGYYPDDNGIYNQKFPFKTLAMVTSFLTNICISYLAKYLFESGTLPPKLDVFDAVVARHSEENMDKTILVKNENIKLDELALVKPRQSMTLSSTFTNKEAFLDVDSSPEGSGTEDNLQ

[13] = Luminescence Cell-Based Dose Retest to Confirm Inhibitors of Cancer Stem Cells. [Related pubchem assays (depositor defined):AID2717, AID2721]; type: functional; details: Homo sapiens
[14] = Trypanosoma cruzi growth suppression in host cells – NIH3T3 host cells, beta-gal luminescence, confirmation (AID 2044); type: functional, cell-based;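 note: intracellular parasites grown in NIH/3T3 mouse fibroblasts as host cells; luminescent beta-galactosidase reporter signal from transgenic T. cruzi replicating inside host cells; inhibitors lower the luminescence signal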
[15] = NIH3T3 cell viability loss – ATP luminescence, mouse fibroblasts, counter-screen, dose response (AID 2010); type: functional, cell-based;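 note: cells exposed to compound for about 90 hours before reading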
[16] = tested on: Streptococcus sp. 'group A'; test: Streptococcus pyogenes SK(-)GAS viability under kanamycin – luminescence, BacTiterGlo, confirmation, counter-screen for streptokinase expression inhibitor project, dose response (AID 1900); type: functional, organism-based
[17] = tested on: Streptococcus; test: GAS UMAA2166 growth inhibition – luminescence, BacTiterGlo, counter-screen for streptokinase expression inhibitor project, dose response (AID 1915); type: functional, organism-based;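 note: potency for reduction of bacterial viability or growth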
[18] = molecular target: T2, Polyadenylate-binding protein 1 (Homo sapiens, UniProt P11940); test: MLLE binding blockers, Cy5 peptide tracer – biochemical, fluorescence polarization, Cy5-PAM2 peptide, secondary, miRNA deadenylation inhibitor project, dose response (AID 602260); type: functional; details: read-out: IC50_Mean
T2 sequence (P11940 whole entry, the tested form may be a part): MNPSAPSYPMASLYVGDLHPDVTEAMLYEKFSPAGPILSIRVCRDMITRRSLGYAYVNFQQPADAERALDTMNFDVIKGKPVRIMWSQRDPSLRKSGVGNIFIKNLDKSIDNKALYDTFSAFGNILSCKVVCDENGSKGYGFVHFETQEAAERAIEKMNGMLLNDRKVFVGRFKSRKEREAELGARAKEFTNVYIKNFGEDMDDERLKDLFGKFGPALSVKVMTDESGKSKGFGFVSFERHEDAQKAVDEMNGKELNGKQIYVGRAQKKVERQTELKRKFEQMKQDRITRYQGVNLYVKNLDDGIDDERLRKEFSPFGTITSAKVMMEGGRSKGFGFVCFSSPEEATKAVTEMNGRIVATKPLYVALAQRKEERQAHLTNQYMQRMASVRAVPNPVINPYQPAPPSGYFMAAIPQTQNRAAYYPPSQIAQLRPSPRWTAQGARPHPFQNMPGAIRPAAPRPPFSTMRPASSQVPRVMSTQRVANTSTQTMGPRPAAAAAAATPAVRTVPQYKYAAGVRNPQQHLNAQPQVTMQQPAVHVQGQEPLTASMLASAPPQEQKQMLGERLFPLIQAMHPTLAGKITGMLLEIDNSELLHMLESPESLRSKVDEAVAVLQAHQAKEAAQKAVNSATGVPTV

[19] = molecular target: T3, RNA-binding protein pos-1 (Caenorhabditis elegans, UniProt G5EF15); test: disruptors of C. elegans POS-1 RNA interaction – biochemical, fluorescence polarization, dose response (AID 1964);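 note: purified POS-1 fused to maltose binding protein made in E. coli; potency of compounds blocking POS-1 binding to fluorescent RNA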
T3 sequence (G5EF15 whole entry): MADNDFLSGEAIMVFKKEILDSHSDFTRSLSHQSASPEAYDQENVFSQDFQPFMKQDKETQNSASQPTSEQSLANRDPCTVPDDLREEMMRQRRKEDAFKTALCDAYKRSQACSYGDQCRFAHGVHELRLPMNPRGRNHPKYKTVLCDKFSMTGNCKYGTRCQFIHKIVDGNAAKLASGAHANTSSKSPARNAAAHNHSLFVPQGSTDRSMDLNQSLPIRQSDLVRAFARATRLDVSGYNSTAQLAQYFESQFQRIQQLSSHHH

[20] = molecular target: T2, Polyadenylate-binding protein 1; test: MLLE domain peptide-binding blockers, IC50 – biochemical, fluorescence polarization, FITC-PAM2 peptide, dose response (AID 602259); type: functional; details: read-out: IC50_Mean
[21] = molecular target: T4, Zinc finger protein mex-5 (Caenorhabditis elegans, UniProt Q9XUB2); test: potency of MEX-5 RNA-binding blockers – biochemical, C. elegans, fluorescence polarization, dose response (AID 1960)
T4 sequence (Q9XUB2 whole entry): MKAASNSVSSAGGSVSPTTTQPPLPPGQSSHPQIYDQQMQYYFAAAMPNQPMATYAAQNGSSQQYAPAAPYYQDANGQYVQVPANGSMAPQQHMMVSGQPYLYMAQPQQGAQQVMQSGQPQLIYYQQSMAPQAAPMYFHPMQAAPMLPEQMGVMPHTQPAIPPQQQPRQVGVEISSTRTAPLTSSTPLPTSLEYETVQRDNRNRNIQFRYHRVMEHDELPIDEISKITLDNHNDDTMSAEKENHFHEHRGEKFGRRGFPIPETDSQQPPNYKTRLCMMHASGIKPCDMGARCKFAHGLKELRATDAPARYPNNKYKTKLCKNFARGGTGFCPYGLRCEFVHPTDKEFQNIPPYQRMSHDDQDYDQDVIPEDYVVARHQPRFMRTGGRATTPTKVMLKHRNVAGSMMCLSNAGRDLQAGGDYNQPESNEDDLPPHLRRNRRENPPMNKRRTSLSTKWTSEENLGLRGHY

In the case of COc1ccc(NC(=O)c2ccc(-c3ccccc3)cc2)cc1S(=O)(=O)N1CCOCC1, the AC50 [1] is reported as 0.698 µM (active).

For CCN1C/C(=C/c2cccc([N+](=O)[O-])c2)C(=O)/C(=C/c2cccc([N+](=O)[O-])c2)C1, the AC50 [2] was 4.21 µM (active), the EC50 [3] was 0.085 µM (active) and the AC50 [4] was 2.24 µM (active). The EC50 [5] was 0.062 µM (active).

For c1ccc(-c2cn3c(n2)CCc2ccc4cccnc4c2-3)cc1, the CC50 [6] was 22.1 µM (active), the IC50 [7] was > 80 µM (inactive) and the IC50 [8] was > 79 µM (inactive).

For C[C@@H]1O[C@H]1P(=O)([O-])[O-].[Na+].[Na+], the AC50 [9] was “inconclusive”.

In the case of Cc1cccc(NC(=O)c2cc(NC(=O)C3CCCCC3C(=O)O)ccc2N2CCCCC2)c1 (stereo not drawn), the IC50 [10] is reported as 37.7 µM (active) and the CC50 [11] is reported as 15.7 µM (active).

For Cc1nnc2oc(O)c(C)c(C)c1-2, the AC50 [9] was “inconclusive”.

In the case of O=C(c1c(O)c2ccccc2oc1=O)C1CCCCC1, the IC50 [12] is reported as 10 µM (active).

With Cc1ccc(Nc2nc(N)c([N+](=O)[O-])c(N3CCCC(C)C3)n2)cc1C (stereo not drawn) the CC50 [6] was 40 µM (active) and the AC50 [2] was 8.91 µM (active).

With Cn1c(N=C(S)Nc2ccccc2)nc2ccccc21 the CC50 [6] was > 40 µM (active).

In the case of Cc1ccc(OC/C(O)=C(\C#N)c2nc3ccccc3s2)cc1, the CC50 [6] is reported as > 40 µM (active) and the AC50 [13] is reported as 6.14 µM (active).

With Cc1cc(Nc2cc(Cl)nc(Sc3ccc(NC(=O)C4CC4)cc3)n2)[nH]n1 the CC50 [6] was 35.8 µM (active).

In the case of COc1ccc(C2(C(=O)Nc3ccc(S(=O)(=O)Nc4nc(C)cc(C)n4)cc3)CCCC2)cc1OC, the IC50 [12] is reported as 12.3 µM (active).

With c1ccc(CN2CCN(c3nc4ccccc4n4cnnc34)CC2)cc1 the IC50 [12] was 1.82 µM (active).

For CCc1c(C)sc(NC(=O)OC)c1C(N)=O, the AC50 [9] was “inconclusive”.

With CC(=O)c1ccc(N2CCC(c3cc(-c4ccc(Cl)cc4Cl)[nH]n3)CC2)c([N+](=O)[O-])c1 the CC50 [6] was 29.2 µM (active), the EC50 [14] was 1.24 µM (active) and the EC50 [15] was > 60 µM (inconclusive). The AC50 [13] was 2.19 µM (active), the EC50 [16] was 4.36 µM (active) and the EC50 [17] was 8.12 µM (active).

For CCOC(=O)c1oc2nc(CC(C)C)c3c(c2c1N)CCCC3, the IC50 [12] was 12.9 µM (active).

With CCCCc1cn([C@@H](CCCCN)C(=O)N2CCNCC2)nn1 the IC50 [18] was > 66 µM (inactive), the EC50 [19] was 31.9 µM (active) and the IC50 [20] was 21 µM (inactive). For the same compound, the EC50 [21] was 26.1 µM (active).
